Patent US20090215625A1, “Combinations of Herbicides and Safeners” (priority 2008, published 2009)
Like-named read-outs stand apart in the source and are kept apart here.

Key:
St. Augustinegrass = conditions: in vivo
bermudagrass turf [1] = test: Tembotrione safening with flucarbazone, bermudagrass injury; parameters: species or system Cynodon dacytlon; conditions: in vivo
From the text: (§1) Treatments were applied with a CO2 pressurized spray system at a volume of 280 L ha^−1. A four nozzle spray boom utilizing 8002 XR flat fan nozzles (Spraying Systems, Inc, Wheaton, Ill.) on 25 cm spacing and a height of 25 cm was utilized. Spray pressure at the nozzle was 22 PSI and ground speed was 5 km/h. All treatments were applied with 0.25% v/v non-ionic surfactant (X-77 Non-Ionic Surfactant; Helena Chemical Company, Memphis, Tenn.).
Tembotrione is a carotenoid biosynthesis inhibiting herbicide that injures bermudagrass. Table 5 refers to research data evaluating the safening of flucarbazone when combined with tembotrione. Tembotrione applied at 0.023 to 0.092 kg/ha injured bermudagrass turf from 30 to 72%; with the greatest injury occurring at 0.092. All tembotrione plus flucarbazone treatments reduced bermudagrass injury when compared to the equivalent rates of tembotrione alone. Tembotrione (at 0.092 kg/ha) plus flucarbazone at 0.015 or 0.029 kg/ha injured bermudagrass 20; however, flucarbazone at 0.059 reduced bermudagrass injury greater to 8%. It is likely that higher rates of flucarbazone will be needed to provide adequate bermudagrass safening as higher rates of tembotrione are applied.

St. Augustinegrass turf = test: Safening comparison of propoxycarbazone and flucarbazone, St. Augustinegrass injury
'Meyer' zoysiagrass [2] = test: Run one visual turfgrass injury, zoysiagrass (JSM08-6); conditions: Rate 0.25 kg ai/ha
Lamium amplexicaule = test: Broadleaf weed control (JSM 08-5), Lamium amplexicaule; type: in vivo
From the text: as §1

bermudagrass turf [3] = test: Safening comparison of propoxycarbazone and flucarbazone, bermudagrass injury
Geranium carolinianum = test: Broadleaf weed control (JSM 08-5), Geranium carolinianum; type: in vivo
From the text: as §1

large crabgrass = test: Large crabgrass control comparison; type: in vivo, Digitaria spp.; conditions: 1 to 2 tiller growth stage
'Tifway' bermudagrass [4] = test: Run one visual turfgrass injury, bermudagrass (JSM 08-4); conditions: Rate 0.25 kg ai/ha
'Tifway' bermudagrass [5] = test: Run two visual turfgrass injury, bermudagrass (JSM 08-14)
[6] = system: 'Palmetto' St. Augustinegrass; test: Run two visual turfgrass injury, St. Augustinegrass (JSM08-14)
'Meyer' zoysiagrass [7] = test: Run two visual turfgrass injury, zoysiagrass (JSM08-15)
[8] = system: 'Palmetto' St. Augustinegrass; test: Run one visual turfgrass injury, St. Augustinegrass (JSM 08-8); conditions: Rate 0.25 kg ai/ha
Stellaria media = test: Broadleaf weed control (JSM 08-5), Stellaria media; type: in vivo
From the text: as §1

[9] = system: 'Palmetto' St. Augustinegrass; conditions: in vivo
'Meyer' zoysiagrass [10] = conditions: in vivo
'Tifway' bermudagrass [11] = conditions: in vivo

Which “St. Augustinegrass injury” value (St. Augustinegrass) does the source give for CS(=O)(=O)c1ccc(C(=O)C2C(=O)CCCC2=O)c(Cl)c1COCC(F)(F)F [Tembotrione, 2-{2-chloro-4-mesyl-3-[(2,2,2-trifluoroethoxy)methyl]benzoyl}cyclohexane-1,3-dione] here?
The value was “no injury was observed”.

What about the “Bermudagrass Injury 23 DAT” value (bermudagrass turf [1]) of the same compound?
The value was 0%.

And the bermudagrass turf injury (bermudagrass turf [1])?
Its bermudagrass turf injury is 30-72%.

For CS(=O)(=O)c1ccc(C(=O)C2C(=O)CCCC2=O)c([N+](=O)[O-])c1 [Mesotrione, 2-(4-methylsulfonyl-2-nitrobenzoyl)cyclohexane-1,3-dione], which “Turfgrass Injury 15 DAT St. Augustinegrass” value (St. Augustinegrass turf; Rate 0.42 kg ai/ha) is on record?
Its value is 35%.

And the “Visual Turfgrass Injury ~13 DAT Zoysiagrass (JSM08-6)” value ('Meyer' zoysiagrass [2])?
Its value is 30%.

And the “Visual Turfgrass Injury ~20 DAT Zoysiagrass (JSM08-6)” value ('Meyer' zoysiagrass [2]; rated 22 DAT)?
The value was 0%.

And the “Weed Control 21 DAT Lamium amplexicaule” value (Lamium amplexicaule; Rate 0.28 kg ai/ha)?
Its value is 100%.

And the “Turfgrass Injury 15 DAT Bermudagrass” value (bermudagrass turf [3]; Rate 0.42 kg ai/ha)?
The value was 28%.

And the “Weed Control 21 DAT Geranium carolinianum” value (Geranium carolinianum; Rate 0.28 kg ai/ha)?
The value was 20%.

What about the “Large Crabgrass Control 21 DAT” value (large crabgrass; Rate 0.175 kg ai/ha) of the same compound?
The value was 95%.

And the “Large Crabgrass Control 51 DAT” value (large crabgrass; Rate 0.175 kg ai/ha)?
Its value is 78%.

And the “Visual Turfgrass Injury ~13 DAT Bermudagrass (JSM 08-4)” value ('Tifway' bermudagrass [4])?
Its value is 12%.

And the “Visual Turfgrass Injury ~20 DAT Bermudagrass (JSM 08-4)” value ('Tifway' bermudagrass [4])?
The value was 7%.

And the “Visual Turfgrass Injury 7 DAT Bermudagrass (JSM 08-14)” value ('Tifway' bermudagrass [5]; Rate 0.18 kg ai/ha)?
Its value is 32%.

What about the “Visual Turfgrass Injury 21 DAT Bermudagrass (JSM 08-14)” value ('Tifway' bermudagrass [5]; Rate 0.18 kg ai/ha) of the same compound?
Its value is 23%.

And the “Visual Turfgrass Injury 7 DAT Bermudagrass (JSM 08-14)” value ('Tifway' bermudagrass [5]; Rate 0.28 kg ai/ha)?
Its value is 35%.

And the “Visual Turfgrass Injury 21 DAT Bermudagrass (JSM 08-14)” value ('Tifway' bermudagrass [5]; Rate 0.28 kg ai/ha)?
Its value is 27%.

And the “Visual Turfgrass Injury 7 DAT St. Augustinegrass (JSM08-14)” value ([6]; Rate 0.18 kg ai/ha)?
The value was 38%.

And the “Visual Turfgrass Injury 21 DAT St. Augustinegrass (JSM08-14)” value ([6]; Rate 0.18 kg ai/ha)?
Its value is 32%.

And the “Visual Turfgrass Injury 7 DAT St. Augustinegrass (JSM08-14)” value ([6]; Rate 0.28 kg ai/ha)?
The value was 40%.

What about the “Visual Turfgrass Injury 21 DAT St. Augustinegrass (JSM08-14)” value ([6]; Rate 0.28 kg ai/ha) of the same compound?
The value was 33%.

And the “Visual Turfgrass Injury 7 DAT Zoysiagrass (JSM08-15)” value ('Meyer' zoysiagrass [7]; Rate 0.18 kg ai/ha)?
The value was 18%.

And the “Visual Turfgrass Injury 21 DAT Zoysiagrass (JSM08-15)” value ('Meyer' zoysiagrass [7]; Rate 0.18 kg ai/ha)?
The value was 20%.

What about the “Visual Turfgrass Injury 7 DAT Zoysiagrass (JSM08-15)” value ('Meyer' zoysiagrass [7]; Rate 0.28 kg ai/ha) of the same compound?
The value was 22%.

And the “Visual Turfgrass Injury 21 DAT Zoysiagrass (JSM08-15)” value ('Meyer' zoysiagrass [7]; Rate 0.28 kg ai/ha)?
Its value is 23%.

What about the “Visual Turfgrass Injury ~13 DAT St. Augustinegrass (JSM 08-8)” value [8] of the same compound?
Its value is 5%.

And the “Visual Turfgrass Injury ~20 DAT St. Augustinegrass (JSM08-8)” value [8]?
The value was 12%.

What about the “Weed Control 21 DAT Stellaria media” value (Stellaria media; Rate 0.28 kg ai/ha) of the same compound?
Its value is 100%.

For COc1c(Cl)ccc(Cl)c1C(=O)O [Dicamba], which “Weed Control 21 DAT Lamium amplexicaule” value (Lamium amplexicaule; Rate 0.28 kg ai/ha) is on record?
The value was 10%.

And the “Weed Control 21 DAT Geranium carolinianum” value (Geranium carolinianum; Rate 0.28 kg ai/ha)?
The value was 73%.

And the “Weed Control 21 DAT Stellaria media” value (Stellaria media; Rate 0.28 kg ai/ha)?
The value was 65%.

How did the “Weed Control 21 DAT Lamium amplexicaule” value (Lamium amplexicaule; Rate 0.007 kg ai/ha) turn out when COc1nn(C(=O)NS(=O)(=O)c2ccccc2OC(F)(F)F)c(=O)n1C [Flucarbazone, 4,5-dihydro-3-methoxy-4-methyl-5-oxo-N-[2-(trifluoromethoxy)phenylsulfonyl]-1H-1,2,4-triazole-1-carboxamide] was run?
Its value is 3%.

And the “Weed Control 21 DAT Lamium amplexicaule” value (Lamium amplexicaule; Rate 0.029 kg ai/ha)?
Its value is 10%.

What about the “Visual Turfgrass Injury ~13 DAT St. Augustinegrass (JSM 08-8)” value [9] of the same compound?
The value was 0%.

And the “Visual Turfgrass Injury ~13 DAT Zoysiagrass (JSM08-6)” value ('Meyer' zoysiagrass [10])?
The value was 0%.

What about the “Visual Turfgrass Injury ~20 DAT Zoysiagrass (JSM08-6)” value ('Meyer' zoysiagrass [10]) of the same compound?
The value was 0%.

What about the “Weed Control 21 DAT Geranium carolinianum” value (Geranium carolinianum; Rate 0.007 kg ai/ha) of the same compound?
The value was 62%.

And the “Weed Control 21 DAT Geranium carolinianum” value (Geranium carolinianum; Rate 0.029 kg ai/ha)?
Its value is 55%.

What about the “Large Crabgrass Control 21 DAT” value (large crabgrass; Rate 0.009 kg ai/ha) of the same compound?
The value was 17%.

What about the “Large Crabgrass Control 51 DAT” value (large crabgrass; Rate 0.009 kg ai/ha) of the same compound?
The value was 0%.

What about the “Visual Turfgrass Injury ~13 DAT Bermudagrass (JSM 08-4)” value ('Tifway' bermudagrass [11]) of the same compound?
Its value is 0%.

And the “Visual Turfgrass Injury ~20 DAT Bermudagrass (JSM 08-4)” value ('Tifway' bermudagrass [11])?
Its value is 0%.

And the “Weed Control 21 DAT Stellaria media” value (Stellaria media; Rate 0.007 kg ai/ha)?
Its value is 35%.

What about the “Weed Control 21 DAT Stellaria media” value (Stellaria media; Rate 0.029 kg ai/ha) of the same compound?
The value was 62%.

With CCCOc1nn(C(=O)NS(=O)(=O)c2ccccc2C(=O)OC)c(=O)n1C [Propoxycarbazone, methyl 2-[(4,5-dihydro-4-methyl-5-oxo-3-propoxy-1H-1,2,4-triazole-1-carboxamido)sulfonyl]benzoate] as the compound, how does the “Turfgrass Injury 15 DAT St. Augustinegrass” value (St. Augustinegrass turf; Rate 0.044 kg ai/ha) read?
The value was 0%.

And the “Turfgrass Injury 15 DAT St. Augustinegrass” value (St. Augustinegrass turf; Rate 0.088 kg ai/ha)?
Its value is 0%.

What about the “Turfgrass Injury 15 DAT St. Augustinegrass” value (St. Augustinegrass turf; Rate 0.177 kg ai/ha) of the same compound?
The value was 0%.

What about the “Turfgrass Injury 15 DAT Bermudagrass” value (bermudagrass turf [3]; Rate 0.044 kg ai/ha) of the same compound?
The value was 0%.

And the “Turfgrass Injury 15 DAT Bermudagrass” value (bermudagrass turf [3]; Rate 0.088 kg ai/ha)?
The value was 0%.

What about the “Turfgrass Injury 15 DAT Bermudagrass” value (bermudagrass turf [3]; Rate 0.177 kg ai/ha) of the same compound?
The value was 0%.
